{
  "source": "paper PMC4854401",
  "about": "“Biochemical Mechanisms for Geographical Adaptations to Novel Toxin Exposures in Butterflyfish” (PLoS ONE, 2016)",
  "origin": "cited, not measured here",
  "tested_on": "CYP activity",
  "set-up": "method as in PMID 24272422",
  "details": "black swallowtails (Papilio polyxenes), dose-dependent; cited from earlier work",
  "data": [
    {"compound": "COc1c2occc2cc2ccc(=O)oc12", "note": "[xanthotoxin]", "values": [
      {"measurement": "induced CYP activity, increase", "value": "seven fold"}
    ]}
  ]
}
